In assay [1] the target is T1, peripheral opioid receptors (Mus musculus, UniProt P42866).
T1 construct: Mice maintained (6 mice/cage) on 0.01M saccharin water with 1 g/1 morphine sulfate; from tissue; host or cells: living morphine-maintained mice (in vivo test; endogenous receptor)
Put plainly: precipitated diarrhea in morphine-maintained mice (peripheral opioid activity) and comparison with the writhing test. Set-up: ED50 (diarrhea): unit not given beside the values. The assay is classed as in vivo. The settings on record: for Ratio (AD50 mouse writhing test / ED50 mouse diarrhea test): higher ratio = greater relative antagonism of peripheral opioid receptors; for ED50: mouse, 0.5 h; for ED50 / ED50 (diarrhea): morphine-maintained mice, antagonist subcutaneous or oral, 30 min observation; for ED50 (diarrhea): 30 min. Put shortly:
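Morphine-dependent mice (1 g/l morphine sulfate in drinking water ≥10 days, withdrawn 45 min before dosing) received antagonist subcutaneously or orally, 5 mice/dose. Diarrhea (and jumping) were scored over 30 min and doses lowered to find the diarrhea threshold. Peripheral selectivity was taken as writhing AD50 divided by diarrhea ED50.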

In the next assay the target is T2, opioid receptor (Mus musculus, UniProt P42866).
T2 construct: Five CF-1 male mice (Charles River, Portage, Mich.); from tissue; host or cells: living CF-1 male mice (in vivo test; endogenous receptor)
T2 sequence (P42866 whole entry): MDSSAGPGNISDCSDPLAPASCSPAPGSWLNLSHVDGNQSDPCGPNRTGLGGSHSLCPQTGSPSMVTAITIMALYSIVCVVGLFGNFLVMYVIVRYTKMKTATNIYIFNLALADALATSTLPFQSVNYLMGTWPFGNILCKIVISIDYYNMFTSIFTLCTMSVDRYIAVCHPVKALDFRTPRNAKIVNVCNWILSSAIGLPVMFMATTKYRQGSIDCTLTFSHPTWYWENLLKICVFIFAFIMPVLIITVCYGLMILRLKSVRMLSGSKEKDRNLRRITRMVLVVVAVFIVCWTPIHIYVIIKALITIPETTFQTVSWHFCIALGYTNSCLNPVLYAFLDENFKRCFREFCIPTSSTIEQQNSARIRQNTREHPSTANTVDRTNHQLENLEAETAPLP
The assay can be described thus: mouse writhing analgesis test: block of morphine-induced analgesia. Set-up: unit not given here. The settings on record: dose of antagonist that reduced the inhibition of writhing produced by 1.25 mg/kg morphine sulfate to 50%, subcutaneous, 20 min before acetic acid. It counts as in vivo, CF-1 male mice. Put shortly: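 Male CF-1 mice (~20 g, fasted overnight, n=5) dosed subcutaneously 20 min before i.p. 0.6% acetic acid; writhes counted for 10 min starting 5 min post-injection. Antagonism measured as blockade of morphine-induced inhibition of writhing, percent versus vehicle controls; ED50 defined as 50% writhing inhibition.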

Another assay has as its target T3, mu receptor (Rattus norvegicus, UniProt P33535).
T3 construct: rat whole brain minus cerebellum for mu was homogenized; from tissue; host or cells: brain of male Sprague Dawley rats, whole brain minus cerebellum, homogenate fraction
Put plainly: opioid receptor binding assay, [3H] NAL (tritiated naloxone), mu receptor. Set-up: species or system rat (Male Sprague Dawley), brain minus cerebellum. Put shortly:
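Displacement of [3H]naloxone was measured on rat whole brain minus cerebellum membranes, preincubated 20 min and incubated 20 min at 37° C, with filtration separating bound ligand. Ki was derived from IC50 and ligand KD. Percent displacement was also recorded at 10 nM and 100 nM test compound.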

[2] abbreviates: 20 min, read-out: % displacement at 10 nM, 10 nM test compound, [3H] naloxone 0.5 nM.
Where [3] appears, read: 20 min, read-out: % displacement at 100 nM, 100 nM test compound, [3H] naloxone 0.5 nM.
[4] abbreviates: 20 min, read-out: % displacement at 10 nM.
Where [5] appears, read: 20 min, read-out: % displacement at 100 nM.
Where [6] appears, read: 20 min, 10 nM test compound, [3H] naloxone 0.5 nM, read-out: % displacement at 10 nM.
Setting [7] is: 20 min, 100 nM test compound, [3H] naloxone 0.5 nM, read-out: % displacement at 100 nM.

Where a name gives a salt, the structure may show the parent alone. Read-outs that look alike come from different tables or passages of the source.

T3 sequence (P33535 whole entry): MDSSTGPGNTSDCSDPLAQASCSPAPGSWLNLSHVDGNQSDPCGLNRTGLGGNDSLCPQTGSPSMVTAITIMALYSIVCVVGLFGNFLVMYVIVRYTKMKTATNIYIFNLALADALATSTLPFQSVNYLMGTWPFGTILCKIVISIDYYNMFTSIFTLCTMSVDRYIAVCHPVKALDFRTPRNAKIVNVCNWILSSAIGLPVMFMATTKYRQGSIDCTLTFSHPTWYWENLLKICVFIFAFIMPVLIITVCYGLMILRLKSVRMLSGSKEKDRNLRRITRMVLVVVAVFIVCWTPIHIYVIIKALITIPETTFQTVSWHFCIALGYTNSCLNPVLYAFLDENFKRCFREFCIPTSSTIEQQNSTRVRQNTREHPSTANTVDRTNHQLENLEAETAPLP
T1 sequence (P42866 whole entry): as the sequence (P42866 whole entry) above

As a reminder, the ED50 is the dose at which the effect has come halfway, by size or by number of responders. What is called Ki is a dissociation constant, usually derived from enzyme kinetics or from competition with a known ligand. In the case of `CCOC(=O)C(CCN1CC[C@@](C)(c2cccc(O)c2)[C@@H](C)C1)c1ccccc1` (relative stereo) [Example 8A, trans-4-[(3-Hydroxyphenyl)-3,4-dimethyl-1-piperidine]-2-phenyl butanoic acid, ethyl ester hydrochloride], in assay [1], the “Ratio (AD50 mouse writhing test / ED50 mouse diarrhea test)” value is listed as 35 and the ED50 worked out at 0.02 mg/kg. The compound also displayed an AD50 on opioid receptor of 0.70. Also, the inhibition at 0.01 µM at mu receptor (setting [2]) came out at 88%. Moreover, the inhibition at 0.1 µM at mu receptor (setting [3]) came out at 95%. On mu receptor ([3H] naloxone 0.5 nM, pH 7.4, 37° C., 20 min), this compound yielded a Ki of 2.01 nM.

With `CC(C)COC(=O)CNC(=O)C(Cc1ccccc1)CN1CC[C@](C)(c2cccc(O)c2)[C@H](C)C1` (single isomer, unassigned) [Example 98D], the “Ratio (AD50 mouse writhing test / ED50 mouse diarrhea test)” value is listed as 4 in assay [1] (listed as 98D*) and 255 in assay [1] (listed as 98D**). Further, the “ED50 (diarrhea)” value came out at 0.06 in assay [1] (listed as 98D**) and 0.76 in assay [1] (listed as 98D*). Further, the AD50 is given as 15.3 on opioid receptor (listed as 98D**, 1.25 mg/kg) and 2.9 on opioid receptor (listed as 98D*, 1.25 mg/kg). At mu receptor, the “% displacement at 100 nM” value is recorded as 96%. Moreover, the inhibition at 0.01 µM amounted to 80% on mu receptor (setting [4]) and 57% at mu receptor (setting [2]). Further, at mu receptor (setting [3]), the inhibition at 0.1 µM amounted to 92%.

Consider `CCNC(=O)CCNC(=O)C(Cc1ccccc1)CN1CC[C@@](C)(c2cccc(O)c2)[C@@H](C)C1` (stereo partly shown) [Example 60, N-(ethyl)-3-[[3-[4-(3-hydroxyphenyl)-3,4-dimethyl-1-piperidinyl]-2-(phenylmethyl)-1-oxopropyl]amino]propanamide monohydrochloride], for which, in assay [1], the “Ratio (AD50 mouse writhing test / ED50 mouse diarrhea test)” value is 112 and the ED50 turned out to be 0.1 mg/kg. The AD50 at opioid receptor is 11.2. The Ki at mu receptor was found to be 1.89 nM. Also, the inhibition at 0.01 µM at mu receptor (setting [2]) was 100%. Moreover, at mu receptor (setting [3]), the inhibition at 0.1 µM stood at 100%.

Regarding `CC(C)OC(=O)CNC(=O)C(Cc1ccccc1)CN1CC[C@@](C)(c2cccc(O)c2)[C@@H](C)C1` (stereo partly shown) [Example 51, 2-[[2-(phenylmethyl)-3-[4-(3-hydroxyphenyl)-3,4-dimethyl-1-piperidinyl]-1-oxopropyl]-amino]ethanoic acid 2-propyl ester monohydrochloride], in assay [1], the “Ratio (AD50 mouse writhing test / ED50 mouse diarrhea test)” value worked out at 25 and the 50% effect level (ED50) was put at a dose of 0.15 mg/kg. Also, the AD50 at opioid receptor came out at 3.8. At mu receptor, this compound gave a Ki of 5.43 nM. Besides, at mu receptor (setting [2]), the inhibition at 0.01 µM is 85%. Moreover, at mu receptor (setting [3]), the inhibition at 0.1 µM stood at 97%.

Regarding `C[C@H]1CN(CC(Cc2ccccc2)C(=O)NCC(=O)NCC(=O)NCc2ccccc2)CC[C@@]1(C)c1cccc(O)c1` (relative stereo) [Example 73], in assay [1], the “Ratio (AD50 mouse writhing test / ED50 mouse diarrhea test)” value was found to be 11 and the ED50 was determined as 1.73 mg/kg. On opioid receptor, the AD50 amounted to 20. On mu receptor, the affinity corresponds to a Ki of 1.8 nM. In addition, the inhibition at 0.01 µM at mu receptor (setting [2]) was 84%. Moreover, the inhibition at 0.1 µM on mu receptor (setting [3]) amounted to 90%.

Take `C[C@H]1CN(CC(Cc2ccccc2)C(=O)NCC(=O)O)CC[C@@]1(C)c1cccc(O)c1` (single isomer, unassigned; (+)) [Example 97E, monohydrate]: in assay [1], the “Ratio (AD50 mouse writhing test / ED50 mouse diarrhea test)” value came to 127 and it took a dose of 0.07 mg/kg to reach the 50% effect level (ED50). On opioid receptor, this compound displayed an AD50 of 8.9. Also, the inhibition at 0.01 µM on mu receptor (setting [4]) was determined as 80%. Moreover, on mu receptor (setting [5]), the inhibition at 0.1 µM was 90%.

Consider `C[C@H]1CN(CC(Cc2ccccc2)C(=O)NCC(=O)OCC(N)=O)CC[C@@]1(C)c1cccc(O)c1` (relative stereo) [Example 87], for which, in assay [1], the “Ratio (AD50 mouse writhing test / ED50 mouse diarrhea test)” value is reported as 27 and it took a dose of 0.71 mg/kg to reach the 50% effect level (ED50). At opioid receptor, this compound had an AD50 of 19. On mu receptor (setting [6]), the inhibition at 0.01 µM stood at 94%. The inhibition at 0.1 µM on mu receptor (setting [7]) was 99%.

In the case of `CCNC(=O)CCCNC(=O)C(CC1CCCCC1)CN1CC[C@@](C)(c2cccc(O)c2)[C@@H](C)C1` (stereo partly shown) [Example 42, N-[4-(ethylamino)-4-oxobutyl]-3-[4-(3--hydroxyphenyl)-3,4-dimethyl-1-piperidinyl[-2-cyclohexyl-methylpropanamide monohydrate hydrochloride], in assay [1], the “Ratio (AD50 mouse writhing test / ED50 mouse diarrhea test)” value came out at 8 and the 50% effective dose (ED50) worked out at 0.26 mg/kg. The AD50 at opioid receptor was determined as 2.1. At mu receptor, this compound returned a Ki of 0.57 nM. Moreover, on mu receptor (setting [2]), the inhibition at 0.01 µM was 100%. Also, the inhibition at 0.1 µM on mu receptor (setting [5]) was determined as 97%.

Regarding `C[C@H]1CN(CCC(C(=O)NCCCC(=O)O)C2CCCCC2)CC[C@@]1(C)c1cccc(O)c1` (relative stereo) [Example 28, 4-[[2-cyclohexyl-4-[4-(3-hydroxyphenyl)-3,4-dimethyl-1-piperidinyl]-1-oxobutyl]amino]-butanoic acid monohydrate], in assay [1], the “Ratio (AD50 mouse writhing test / ED50 mouse diarrhea test)” value is reported as above 4000 and the ED50 worked out at 0.01 mg/kg. At opioid receptor, this compound had an AD50 above 40. In addition, the affinity at mu receptor, expressed as Ki, was 3.09 nM. Further, the inhibition at 0.01 µM at mu receptor (setting [2]) amounted to 86%. Also, on mu receptor (setting [3]), the inhibition at 0.1 µM turned out to be 95%.

On to `C[C@H]1CN(CCC(C(=O)NCC(N)=O)C2CCCCC2)CC[C@@]1(C)c1cccc(O)c1` (relative stereo) [Example 20, N-(2-amino-2-oxoethyl)-4-[4-(3hydroxyphenyl)-3,4-dimethyl-1-piperidinyl]-2-cyclohexylbutanamide hydrochloride monohydrate], for which, in assay [1], the “Ratio (AD50 mouse writhing test / ED50 mouse diarrhea test)” value is listed as 802 and the 50% effect level (ED50) was put at a dose of 0.004 mg/kg. For the same compound, the AD50 at opioid receptor is listed as 32.1. The affinity on mu receptor corresponds to a Ki of 0.78 nM. In addition, the inhibition at 0.01 µM at mu receptor (setting [2]) amounted to 98%. In addition, the inhibition at 0.1 µM on mu receptor (setting [3]) was 100%.

As for `CCNC(=O)CNC(=O)C(CC1CCCCC1)CN1CC[C@@](C)(c2cccc(O)c2)[C@@H](C)C1` (relative stereo) [Example 31, N-ethyl-2-[[3-[4-(3-hydroxyphenyl)-3,4-dimethyl-1-piperidinyl]-2-(cyclohexylmethyl)-1-oxo-propyl]amino]acetamide monohydrochloride monohydrate], in assay [1], the “Ratio (AD50 mouse writhing test / ED50 mouse diarrhea test)” value was 38 and the 50% effect level (ED50) was put at a dose of 0.14 mg/kg. On opioid receptor, this compound showed an AD50 of 5.3. Moreover, at mu receptor, the Ki came to 0.4 nM. Besides, the inhibition at 0.01 µM on mu receptor (setting [2]) was 100%. The inhibition at 0.1 µM on mu receptor (setting [5]) was 97%.

For `CNC(=O)CNC(=O)C(Cc1ccccc1)CN1CC[C@@](C)(c2cccc(OC)c2)[C@@H](C)C1` (single isomer, unassigned) [Example 82], in assay [1], the “Ratio (AD50 mouse writhing test / ED50 mouse diarrhea test)” value was 17 and it took a dose of 0.055 mg/kg to reach the 50% effect level (ED50). Further, the AD50 entry on opioid receptor was “.95”. Besides, at mu receptor (setting [6]), the inhibition at 0.01 µM turned out to be 31%. Further, on mu receptor (setting [7]), the inhibition at 0.1 µM amounted to 73%.

Take `C[C@H]1CN(CC(CC2CCCCC2)C(=O)O)CC[C@@]1(C)c1cccc(O)c1` (relative stereo) [Example 5B, 3-[3,4-dimethyl-4-(3-hydroxyphenyl)-1-piperidinyl]-2-(cyclohexylmethyl)-propanoic acid monohydrate]: in assay [1], the “Ratio (AD50 mouse writhing test / ED50 mouse diarrhea test)” value amounted to 7 and the ED50 came to 0.24 mg/kg. On opioid receptor, this compound displayed an AD50 of 1.6. The compound also showed a Ki on mu receptor of 1.11 nM. The inhibition at 0.01 µM at mu receptor (setting [2]) stood at 93%. Further, the inhibition at 0.1 µM on mu receptor (setting [3]) amounted to 99%.

With `CCNC(=O)CNC(=O)C(Cc1ccccc1)CN1CC[C@@](C)(c2cccc(O)c2)[C@@H](C)C1` (stereo partly shown) [Example 45, N-ethyl-2-[[2-(phenylmethyl-)-1-oxo-3-[4-(3-hydroxyphenyl)-3,4-dimethyl-1-piperidinyl]propyl]-amino]ethanamide], in assay [1], the “Ratio (AD50 mouse writhing test / ED50 mouse diarrhea test)” value is given as 11 and the 50% effect level (ED50) was put at a dose of 0.24 mg/kg. On opioid receptor, this compound registered an AD50 of 2.6. On mu receptor, this compound gave a Ki of 1.28 nM. For the same compound, the inhibition at 0.01 µM at mu receptor (setting [2]) worked out at 93%. For the same compound, the inhibition at 0.1 µM at mu receptor (setting [5]) amounted to 98%.

Consider `C[C@H]1CN(CC(Cc2ccccc2)C(=O)NCC(=O)NCC(=O)O)CC[C@@]1(C)c1cccc(O)c1` (relative stereo) [Example 68, N-(carboxylmethyl-)-2-[[3-[4-(3-hydroxyphenyl)-3,4-dimethyl-1-piperidinyl]-2-(phenylmethyl)-1-oxopropyl]amino]acetamide monohydrate], for which, in assay [1], the “Ratio (AD50 mouse writhing test / ED50 mouse diarrhea test)” value is on record as above 174 and the ED50 was 0.23 mg/kg. Besides, at opioid receptor, the AD50 is listed as above 40. This compound displayed a Ki at mu receptor of 1.51 nM. For the same compound, the inhibition at 0.01 µM at mu receptor (setting [2]) turned out to be 79%. Further, on mu receptor (setting [3]), the inhibition at 0.1 µM is 86%.

The values above are taken from US5250542A, “Peripherally selective piperidine carboxylate opioid antagonists” (Eli Lilly and Company, priority 1992, dated 1993).
